Measurements taken from PubChem BioAssay AID328 (DTP/NCI, 2004).
Where “and” joins values, the source holds several entries; their conditions need not be identical. Equal entries are not always repeated. Inconclusive results and toxic doses are left out.

System: BDF1 mice, P388 leukemia ip, median survival T/C
Test: NCI In Vivo Anticancer Drug Screen. Data for tumor model P388 Leukemia (intraperitoneal) in B6D2F1 (BDF1) mice
Settings: endpoint: median survival time, higher = longer survival
Outline: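 Each value expresses how treatment altered survival: treated-mouse outcome over vehicle-mouse outcome, both groups bearing the transplanted tumour.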

## COc1cc2cc3c4cc(OC)c(OC)cc4cc[n+]3c(C)c2cc1OC
dose: 8.0 mg/kg/injection, schedule: Q03HX024 (ip), vehicle: saline
  T/C: 150 % of control
dose: 12.5 mg/kg/injection, schedule: Q01DX009 (ip), vehicle: Klucel (hydroxypropylcellulose) (HPC)
  T/C: 105 % of control
dose: 12.5 mg/kg/injection, schedule: Q01DX009 (ip), vehicle: saline
  T/C: 165 % of control
dose: 12.5 mg/kg/injection, schedule: Q01DX009 (ip), vehicle: water
  T/C: 195 % of control
dose: 25.0 mg/kg/injection, schedule: Q01DX009 (ip), vehicle: water
  T/C: 195 % of control
dose: 25.0 mg/kg/injection, schedule: Q04DX003 (ip), vehicle: water
  T/C: 170 % of control
dose: 32.0 mg/kg/injection, schedule: Q03HX008 (ip), vehicle: saline
  T/C: 154 % of control
dose: 32.0 mg/kg/injection, schedule: Q03HX024 (ip), vehicle: saline
  T/C: 168 % of control
dose: 37.5 mg/kg/injection, schedule: Q01DX001 (ip), vehicle: saline
  T/C: 154 % of control
dose: 37.5 mg/kg/injection, schedule: Q01DX009 (ip), vehicle: saline
  T/C: 162 % of control
dose: 50.0 mg/kg/injection, schedule: Q01DX009 (ip), vehicle: saline
  T/C: 172 % of control and 181 % of control and 184 % of control
dose: 50.0 mg/kg/injection, schedule: Q01DX009 (ip), vehicle: water
  T/C: 190 % of control
dose: 50.0 mg/kg/injection, schedule: Q04DX003 (ip), vehicle: water
  T/C: 190 % of control
dose: 64.0 mg/kg/injection, schedule: Q01DX009 (ip), vehicle: saline
  T/C: 159 % of control
dose: 64.0 mg/kg/injection, schedule: Q01DX009 (sc), vehicle: saline
  T/C: 100 % of control
dose: 64.0 mg/kg/injection, schedule: Q03HX024 (ip), vehicle: saline
  T/C: 163 % of control
dose: 75.0 mg/kg/injection, schedule: Q01DX001 (ip), vehicle: saline
  T/C: 158 % of control
dose: 75.0 mg/kg/injection, schedule: Q01DX009 (ip), vehicle: saline
  T/C: 183 % of control
dose: 75.0 mg/kg/injection, schedule: Q04DX003 (ip), vehicle: saline
  T/C: 150 % of control
dose: 100.0 mg/kg/injection, schedule: Q01DX001 (ip), vehicle: water
  T/C: 195 % of control
dose: 100.0 mg/kg/injection, schedule: Q01DX009 (ip), vehicle: Klucel (hydroxypropylcellulose) (HPC)
  T/C: 170 % of control
dose: 100.0 mg/kg/injection, schedule: Q01DX009 (ip), vehicle: saline with Tween-80
  T/C: 159 % of control and 177 % of control and 195 % of control
dose: 100.0 mg/kg/injection, schedule: Q01DX009 (ip), vehicle: saline
  T/C: 172 % of control and 195 % of control
dose: 100.0 mg/kg/injection, schedule: Q01DX009 (ip), vehicle: water
  T/C: 210 % of control
dose: 100.0 mg/kg/injection, schedule: Q04DX002 (ip), vehicle: saline
  T/C: 163 % of control
dose: 100.0 mg/kg/injection, schedule: Q04DX003 (ip), vehicle: saline
  T/C: 153 % of control
dose: 100.0 mg/kg/injection, schedule: Q04DX003 (ip), vehicle: water
  T/C: 190 % of control
dose: 128.0 mg/kg/injection, schedule: Q01DX009 (ip), vehicle: saline
  T/C: 163 % of control
dose: 128.0 mg/kg/injection, schedule: Q01DX009 (sc), vehicle: saline
  T/C: 100 % of control
dose: 128.0 mg/kg/injection, schedule: Q03HX008 (ip), vehicle: saline
  T/C: 154 % of control
dose: 128.0 mg/kg/injection, schedule: Q03HX024 (ip), vehicle: saline
  T/C: 181 % of control
dose: 150.0 mg/kg/injection, schedule: Q01DX001 (ip), vehicle: saline
  T/C: 162 % of control
dose: 150.0 mg/kg/injection, schedule: Q01DX009 (ip), vehicle: saline
  T/C: 195 % of control
dose: 150.0 mg/kg/injection, schedule: Q04DX003 (ip), vehicle: saline
  T/C: 162 % of control
dose: 200.0 mg/kg/injection, schedule: Q01DX001 (ip), vehicle: water
  T/C: 185 % of control
dose: 200.0 mg/kg/injection, schedule: Q01DX009 (ip), vehicle: saline with Tween-80
  T/C: 86 % of control and 181 % of control and 218 % of control
dose: 200.0 mg/kg/injection, schedule: Q01DX009 (ip), vehicle: saline
  T/C: 172 % of control and 196 % of control and 204 % of control
dose: 200.0 mg/kg/injection, schedule: Q01DX009 (ip), vehicle: water
  T/C: 165 % of control
dose: 200.0 mg/kg/injection, schedule: Q04DX002 (ip), vehicle: saline
  T/C: 157 % of control
dose: 200.0 mg/kg/injection, schedule: Q04DX003 (ip), vehicle: saline
  T/C: 169 % of control and 204 % of control
dose: 200.0 mg/kg/injection, schedule: Q04DX003 (ip), vehicle: water
  T/C: 205 % of control
dose: 256.0 mg/kg/injection, schedule: Q01DX009 (sc), vehicle: saline
  T/C: 100 % of control
dose: 256.0 mg/kg/injection, schedule: Q03HX024 (ip), vehicle: saline
  T/C: 122 % of control
dose: 256.0 mg/kg/injection, schedule: Q08DX002 (ip), vehicle: saline
  T/C: 154 % of control
dose: 300.0 mg/kg/injection, schedule: Q01DX001 (ip), vehicle: saline
  T/C: 158 % of control
dose: 300.0 mg/kg/injection, schedule: Q01DX009 (ip), vehicle: saline
  T/C: 216 % of control
dose: 300.0 mg/kg/injection, schedule: Q04DX003 (ip), vehicle: saline
  T/C: 170 % of control
dose: 400.0 mg/kg/injection, schedule: Q01DX001 (ip), vehicle: water
  T/C: 170 % of control
dose: 400.0 mg/kg/injection, schedule: Q01DX009 (ip), vehicle: saline with Tween-80
  T/C: 181 % of control
dose: 400.0 mg/kg/injection, schedule: Q01DX009 (ip), vehicle: saline
  T/C: 90 % of control
dose: 400.0 mg/kg/injection, schedule: Q04DX002 (ip), vehicle: saline
  T/C: 163 % of control and 191 % of control
dose: 400.0 mg/kg/injection, schedule: Q04DX003 (ip), vehicle: saline
  T/C: 180 % of control and 190 % of control
dose: 400.0 mg/kg/injection, schedule: Q04DX003 (ip), vehicle: water
  T/C: 240 % of control
dose: 512.0 mg/kg/injection, schedule: Q01DX001 (ip), vehicle: saline
  T/C: 163 % of control
dose: 512.0 mg/kg/injection, schedule: Q01DX009 (sc), vehicle: saline
  T/C: 109 % of control
dose: 512.0 mg/kg/injection, schedule: Q08DX002 (ip), vehicle: saline
  T/C: 159 % of control
dose: 600.0 mg/kg/injection, schedule: Q01DX001 (ip), vehicle: saline
  T/C: 200 % of control
dose: 600.0 mg/kg/injection, schedule: Q01DX009 (ip), vehicle: saline
  T/C: 116 % of control
dose: 600.0 mg/kg/injection, schedule: Q04DX003 (ip), vehicle: saline
  T/C: 170 % of control
dose: 800.0 mg/kg/injection, schedule: Q04DX003 (ip), vehicle: saline
  T/C: 181 % of control
dose: 1024.0 mg/kg/injection, schedule: Q01DX001 (ip), vehicle: saline
  T/C: 109 % of control
dose: 1024.0 mg/kg/injection, schedule: Q01DX009 (sc), vehicle: saline
  T/C: 100 % of control
dose: 1024.0 mg/kg/injection, schedule: Q08DX002 (ip), vehicle: saline
  T/C: 177 % of control
dose: 2048.0 mg/kg/injection, schedule: Q01DX009 (sc), vehicle: saline
  T/C: 100 % of control
dose: 2048.0 mg/kg/injection, schedule: Q04DX003 (ip), vehicle: saline
  T/C: 109 % of control
